# The source made the active and inactive calls. The rule behind the calls is not given here.
# Legend:
# [1] = Binding affinity to viologen paraquat cation assessed as compound-viologen complex stability at pH 2 by isothermal calorimetry
# [2] = Binding affinity to viologen paraquat cation assessed as decrease in hydroxyl radical production at pH 7.2 by cyclic voltammetry
# [3] = Binding affinity to viologen diquat cation assessed as decrease in hydroxyl radical production at pH 7.2 by cyclic voltammetry
# [4] = Binding affinity to viologen diquat cation assessed as compound-viologen complex stability at pH 2 by isothermal calorimetry
# [5] = Binding affinity to viologen paraquat cation assessed as compound-viologen complex stability at pH 7.2 by isothermal calorimetry
# [6] = Binding affinity to viologen diquat cation assessed as compound-viologen complex stability at pH 7.2 by isothermal calorimetry
# [7] = Binding affinity to viologen paraquat cation at pH 7.2 by microcalorimetric titration method
# [8] = Binding affinity to viologen diquat cation at pH 7.2 by microcalorimetric titration method
# [9] = Binding affinity to viologen paraquat cation at pH 1.5 by microcalorimetric titration method
# [10] = Binding affinity to viologen diquat cation at pH 1.5 by microcalorimetric titration method
# [11] = Binding affinity to viologen paraquat cation assessed as compound-viologen complex formation by NMR spectroscopy
# [12] = Binding affinity to viologen diquat cation assessed as compound-viologen complex formation by NMR spectroscopy
# Mus musculus [13] = assay: Reduction of viologen poisoning in Kunming mouse assessed as viologen-associated mortality rate at 100 uL/20g body weight, iv for 13 days measured on day 14; assay type: functional; design: scale not given: the % may be the effect or the level left
# Mus musculus [14] = assay: Reduction of viologen poisoning in Kunming mouse assessed as change in body weight at 100 uL/20g body weight, iv for 13 days measured on day 14 (reference value: 14 g); assay type: functional
# Mus musculus [15] = assay: Toxicity in Kunming mouse assessed as change in body weight at 100 uL/20g body weight, iv for 13 days measured on day 14 (reference value: 32.8 +/- 3.8 g); assay type: organism-based; settings: in vivo, 312 h
# Mus musculus [16] = assay: Reduction of viologen poisoning in Kunming mouse assessed as protection from viologen-associated pathological changes in lung at 100 uL/20g body weight, iv for 13 days measured on day 14 by hematoxylin and eosin staining-based microscopy; assay type: functional, organism-based
# Mus musculus [17] = assay: Reduction of viologen poisoning in Kunming mouse assessed as protection from viologen-associated pathological changes in liver at 100 uL/20g body weight, iv for 13 days measured on day 14 by hematoxylin and eosin staining-based microscopy; assay type: functional, organism-based
# Mus musculus [18] = assay: Reduction of viologen poisoning in Kunming mouse assessed as viologen-associated mortality rate at 100 uL/20g body weight, iv administered immediately after viologen challenge for 13 days measured on day 14; assay type: functional; design: scale not given: the % may be the effect or the level left
# Mus musculus [19] = assay: Reduction of viologen poisoning in Kunming mouse assessed as viologen-associated mortality rate at 100 uL/20g body weight, iv administered 1 hr after viologen challenge for 13 days measured on day 14; assay type: functional; design: scale not given: the % may be the effect or the level left
# Mus musculus [20] = assay: Reduction of viologen poisoning in Kunming mouse assessed as viologen-associated mortality rate at 100 uL/20g body weight, iv administered 30 mins after viologen challenge for 13 days measured on day 14; assay type: functional; design: scale not given: the % may be the effect or the level left
# Mus musculus [21] = assay: Reduction of viologen poisoning in Kunming mouse assessed as viologen-associated mortality rate at 100 uL/20g body weight, iv administered 2 hrs after viologen challenge for 13 days measured on day 14; assay type: functional; design: scale not given: the % may be the effect or the level left
# Mus musculus [22] = assay: Reduction of viologen poisoning in Kunming mouse assessed as protection from viologen-associated pathological changes in lung at 100 uL/20g body weight, iv administered immediately after viologen challenge for 13 days measured on day 14 by hematoxylin and eosin staining-based microscopy; assay type: functional, organism-based
# Mus musculus [23] = assay: Reduction of viologen poisoning in Kunming mouse assessed as protection from viologen-associated pathological changes in lung at 100 uL/20g body weight, iv administered 30 mins after viologen challenge for 13 days measured on day 14 by hematoxylin and eosin staining-based microscopy; assay type: functional, organism-based
# Mus musculus [24] = assay: Reduction of viologen poisoning in Kunming mouse assessed as protection from viologen-associated pathological changes in lung at 100 uL/20g body weight, iv administered 1 hr after viologen challenge for 13 days measured on day 14 by hematoxylin and eosin staining-based microscopy; assay type: functional, organism-based
# Mus musculus [25] = assay: Reduction of viologen poisoning in Kunming mouse assessed as protection from viologen-associated pathological changes in lung at 100 uL/20g body weight, iv administered 2 hrs after viologen challenge for 13 days measured on day 14 by hematoxylin and eosin staining-based microscopy; assay type: functional, organism-based
# Mus musculus [26] = assay: Reduction of viologen poisoning in Kunming mouse assessed as change in body weight at 100 uL/20g body weight, iv administered 30 mins after viologen challenge for 13 days measured on day 14 (reference value: 14 g); assay type: functional
# Mus musculus [27] = assay: Reduction of viologen poisoning in Kunming mouse assessed as change in body weight at 100 uL/20g body weight, iv administered immediately after viologen challenge for 13 days measured on day 14 (reference value: 14 g); assay type: functional
# Mus musculus [28] = assay: Reduction of viologen poisoning in Kunming mouse assessed as change in body weight at 100 uL/20g body weight, iv administered 1 hr after viologen challenge for 13 days measured on day 14 (reference value: 14 g); assay type: functional
# Mus musculus [29] = assay: Reduction of viologen poisoning in Kunming mouse assessed as change in body weight at 100 uL/20g body weight, iv administered 2 hrs after viologen challenge for 13 days measured on day 14 (reference value: 14 g); assay type: functional
Ks [1],Activity [2],Activity [3],Ks [4],Ks [5],Ks [6],SMILES,Activity [7],Activity [8],Activity [9],Activity [10],Activity [11],Activity [12],other results
2.22 10^3/M,Active,Active,2.39 10^4/M,8.68 10^3/M,4.57 10^4/M,O=S(=O)(O)c1cc2c(O)c(c1)Sc1cc(S(=O)(=O)O)cc(c1O)Sc1cc(S(=O)(=O)O)cc(c1O)Sc1cc(S(=O)(=O)O)cc(c1O)S2,,,,,,,
3.09 10^4/M,Active,Active,5.4 10^5/M,9.33 10^4/M,7.95 10^5/M,O=S(=O)(O)c1cc2c(O)c(c1)Cc1cc(S(=O)(=O)O)cc(c1O)Cc1cc(S(=O)(=O)O)cc(c1O)Cc1cc(S(=O)(=O)O)cc(c1O)C2,Active,Active,Active,Active,Active,Active,

SMILES,Ks [1],Activity [2],Activity [3],Ks [4],Ks [5],Ks [6],Activity [7],Activity [8],Activity [9],Activity [10],Activity [11],Activity [12],other results
O=S(=O)(O)c1cc2c(O)c(c1)Cc1cc(S(=O)(=O)O)cc(c1O)Cc1cc(S(=O)(=O)O)cc(c1O)Cc1cc(S(=O)(=O)O)cc(c1O)Cc1cc(S(=O)(=O)O)cc(c1O)C2,5.5 10^3/M,Active,Active,1.12 10^5/M,2.51 10^5/M,3.23 10^6/M,Active,Active,Active,Active,Active,Active,Activity (Mus musculus [13]): 20%; Activity (Mus musculus [14]): 30.8 g; Activity (Mus musculus [15]): 33.4 g; Activity (Mus musculus [16]): Active; Activity (Mus musculus [17]): Active; Activity (Mus musculus [18]): 40%; Activity (Mus musculus [19]): 0%; Activity (Mus musculus [20]): 40%; Activity (Mus musculus [21]): 40%; Activity (Mus musculus [22]): Active; Activity (Mus musculus [23]): Active; Activity (Mus musculus [24]): Active; Activity (Mus musculus [25]): Active; Activity (Mus musculus [26]): 31 g; Activity (Mus musculus [27]): 31 g; Activity (Mus musculus [28]): 31 g; Activity (Mus musculus [29]): 31 g

# Reference: ChEMBL document CHEMBL1156249, “Highly effective binding of viologens by p-sulfonatocalixarenes for the treatment of viologen poisoning” (J Med Chem, 2009)
